From US20200316038A1, “METHODS AND COMPOSITIONS FOR TREATING UREA CYCLE DISORDERS, IN PARTICULAR OTC DEFICIENCY” (CAMP4 THERAPEUTICS CORPORATION, priority 2017, published 2020)
Where two headings read alike, the source gives them in different places.

B1: GDF10 (BMP3b): member of the BMP family and the TGF-B superfamily (protein, UniProt P55107 369-478, looked up)
Growth/differentiation factor …: QWDEPRVCSRRYLKVDFADIGWNEWIISPKSFDAYYCAGACEFPMPKIVRPSNHATIQSIVRAVGIIPGIPEPCCVPDKMNSLGVLFLDENRNVVLKVYPNMSVDTCACR
B2: Wnt3a: WNT family secreted signaling protein; FRIZZLED activator (protein, UniProt P56704 19-352, looked up)
Protein Wnt-3a: SYPIWWSLAVGPQYSSLGSQPILCASIPGLVPKQLRFCRNYVEIMPSVAEGIKIGIQECQHQFRGRRWNCTTVHDSLAIFGPVLDKATRESAFVHAIASAGVAFAVTRSCAEGTAAICGCSSRHQGSPGKGWKWGGCSEDIEFGGMVSREFADARENRPDARSAMNRHNNEAGRQAIASHMHLKCKCHGLSGSCEVKTCWWSQPDFRAIGDFLKDKYDSASEMVVEKHRESRGWVETLRPRYTYFKVPTERDLVYYEASPNFCEPNPETGSFGTRDRTCNVSSHGIDGCDLLCCGRGHNARAERRREKCRCVFHWCCYVSCQECTRVYDVHTCK
B3: Nodal: 13 kDa member of the TGF-B superfamily (protein, UniProt Q96S42 238-347, looked up)
Nodal homolog: HHLPDRSQLCRKVKFQVDFNLIGWGSWIIYPKQYNAYRCEGECPNPVGEEFHPTNHAYIQSLLKRYQPHRVPSTCCAPVKTKPLSMLYVDNGRVLLDHHKDMIVEECGCL
B4: Anti mullerian hormone: member of the TGF-B gene family (protein, UniProt P03971 452-560, looked up)
Muellerian-inhibiting factor: SAGATAADGPCALRELSVDLRAERSVLIPETYQANNCQGVCGWPQSDRNPRYGNHVVLLLKMQVRGAALARPPCCVPTAYAGKLLISLSEERISAHHVPNMVATECGCR

Assays:
CPS1 = assay: RNA-seq, CPS1 expression in compound-treated primary human hepatocytes; assay type: cell-based
SLC25A15 = assay: RNA-seq, SLC25A15 expression in compound-treated primary human hepatocytes; assay type: cell-based; conditions: compounds that significantly increase SLC25A15 expression
ASS1 = assay: RNA-seq, ASS1 expression in compound-treated primary human hepatocytes; assay type: cell-based
[1] = tested on: multiple urea cycle-related genes; assay: RNA-seq, compounds that modulate multiple urea cycle-related genes; assay type: cell-based; conditions: primary human hepatocytes; for Up-regulated Genes: urea cycle-related genes significantly increased by the compound
ARG1 = assay: RNA-seq, ARG1 expression in compound-treated primary human hepatocytes; assay type: cell-based; conditions: RNA-seq, primary human hepatocytes, compounds that significantly increase ARG1 expression
OTC [2] = assay: OTC expression modulated by compounds (OTC/Geo Mean of HKs, DMSO = 1); assay type: cell-based, human; conditions: OTC expression; compound at 10 uM final concentration
Method: Analysis of the fold changes in expression as measured by qRT-PCR were performed using the technique below. The control was DMSO, and the treatment was the selected compound (CPD). The internal control was GAPDH or B-Actin, and the gene of interest is the target. First, the averages of the 4 conditions were calculated for normalization: DMSO:GAPDH, DMSO:Target, CPD: GAPDH, and CPD:Target. Next, the ΔCT of both control and treatment were calculated to normalize to internal control (GAPDH) using (DMSO:Target)−(DMSO:GAPDH)=ΔCT control and (CPD:Target)−(CPD: GAPDH)=ΔCT experimental. Then, the ΔΔCT was calculated by ΔCT experimental−ΔCT control.

OTC [3] = assay: RNA-seq, OTC expression in compound-treated primary human hepatocytes; assay type: cell-based
[4] = RNA-seq, primary human hepatocytes, compounds that significantly increase NAGS expression

Molecule | Fold change (Log 2) vs untreated (CPS1) | number of urea cycle genes whose expression was significantly up-regulated [1] | Up-regulated Genes [1] | ARG1 expression, Fold change (Log 2) vs untreated (ARG1) | Fold change (Log 2) vs untreated (OTC [3]) | further results
C=CC(=O)Nc1cccc(Nc2nc(Nc3ccc(N4CCN(C(C)=O)CC4)cc3OC)ncc2C(F)(F)F)c1 [CO-1686 (Rociletinib), Rociletinib] | 0.89 Log 2 |  |  |  |  | NAGS expression, Fold change (Log 2) vs untreated (NAGS): 1.05 Log 2
C[C@]12C[C@H](O)[C@H]3[C@@H](CCC4=CC(=O)CC[C@@]43C)[C@@H]1CC[C@@H]2C(=O)CO [Corticosterone] |  |  |  |  |  | SLC25A15 expression, Fold change (Log 2) vs untreated (SLC25A15): 0.96 Log 2
C[C@]12CC[C@H]3[C@@H](CCC4=CC(=O)CC[C@@]43C)[C@@H]1CC[C@@H]2C(=O)CO [Deoxycorticosterone] | 3.79 Log 2 | four | CPS1, ASS1, ARG1, SLC25A15 | 1.37 Log 2 |  | Fold change (Log 2) vs untreated (ASS1): 0.6 Log 2
COc1cccc2c1C(=O)c1c(O)c3c(c(O)c1C2=O)C[C@@](O)(/C(CO)=N/NC(=O)CCCCCN1C(=O)C=CC1=O)C[C@@H]3O[C@H]1C[C@H](N)[C@H](O)[C@H](C)O1 [INNO-206 (aldoxorubicin), aldoxorubicin] |  | three | NAGS, ASS1, OTC |  | 0.87 Log 2 | Fold change (Log 2) vs untreated (ASS1): 0.58 Log 2; Max Value (OTC/Geo Mean of HKs; DMSO = 1) (OTC [2]): 2.36; NAGS expression, Fold change (Log 2) vs untreated (NAGS; [4]): 1.63 Log 2
[H]/N=C(/N)N/C(=N/[H])NCCc1ccccc1 [Phenformin] |  |  |  | 1.14 Log 2 |  | NAGS expression, Fold change (Log 2) vs untreated (NAGS): 1.38 Log 2
CCCC(=O)O[C@@H]1[C@@H](C)[C@@]2(O)[C@@H](C=C(CO)C[C@]3(O)C(=O)C(C)=C[C@@H]23)[C@@H]2C(C)(C)[C@]12OC(=O)CCC [Phorbol 12,13-dibutyrate] |  |  |  |  |  | NAGS expression, Fold change (Log 2) vs untreated (NAGS; [4]): 0.62 Log 2
NS(=O)(=O)C#Cc1ccccc1 [Pifithrin-u] |  |  |  | 1.87 Log 2 |  | 
NS(=O)(=O)C#Cc1ccccc1 [Pifithrin-μ] |  | three | OTC, NAGS, ARG1 |  | 0.79 Log 2 | NAGS expression, Fold change (Log 2) vs untreated (NAGS; [4]): 1.18 Log 2
COc1cc2c(cc1OC)CN(C(=O)/C=C/c1c(-c3ccccc3)n(C)c3ncccc13)CC2 [SIS3] |  |  |  |  |  | Max Value (OTC/Geo Mean of HKs; DMSO = 1) (OTC [2]): 1.46; NAGS expression, Fold change (Log 2) vs untreated (NAGS): 0.64 Log 2
O=C(NCCCn1ccnc1)c1cc(-c2ccco2)on1 [SKL2001] |  |  |  |  |  | NAGS expression, Fold change (Log 2) vs untreated (NAGS): 0.95 Log 2
O=C1NC(=O)/C(=C/c2cccc(C(F)(F)F)c2)S1 [SMI-4a] |  |  |  |  |  | Fold change (Log 2) vs untreated (ASS1): 0.69 Log 2; NAGS expression, Fold change (Log 2) vs untreated (NAGS): 1.25 Log 2
Cc1cc(C)c(/C=C2\C(=O)Nc3ccccc32)[nH]1 [Semaxanib] |  |  |  |  |  | NAGS expression, Fold change (Log 2) vs untreated (NAGS; [4]): 2 Log 2
CN1CCN(CCCN2c3ccccc3Sc3ccc(C(F)(F)F)cc32)CC1 [TFP, Trifluoperazine] |  |  |  |  |  | NAGS expression, Fold change (Log 2) vs untreated (NAGS; [4]): 0.58 Log 2
CN(C)[C@@H]1C(O)=C(C(N)=O)C(=O)[C@@]2(O)C(O)=C3C(=O)c4c(O)c(NC(=O)CN5CCCC5)cc(F)c4C[C@H]3C[C@@H]12 [TP-434 (Eravacycline), Eravacycline] |  |  |  |  |  | Fold change (Log 2) vs untreated (ASS1): 0.76 Log 2; NAGS expression, Fold change (Log 2) vs untreated (NAGS; [4]): 1.5 Log 2
COc1nc(N)nc2c1ncn2[C@@H]1O[C@H](COP(=O)(N[C@@H](C)C(=O)OCC(C)(C)C)Oc2cccc3ccccc23)[C@@H](O)[C@@]1(C)O (some centres unmarked) [bms-986094 (inx-189)] |  |  |  |  |  | SLC25A15 expression, Fold change (Log 2) vs untreated (SLC25A15): 1.18 Log 2
C[C@]12C=CC(=O)C=C1CC[C@@H]1[C@@H]2C(=O)C[C@@]2(C)[C@H]1CC[C@]2(O)C(=O)CO [prednisone] | 2.17 Log 2 | three | CPS1, NAGS, ARG1 | 1.59 Log 2 |  | NAGS expression, Fold change (Log 2) vs untreated (NAGS; [4]): 1 Log 2
Activin | 2.23 Log 2 | four | NAGS, CPS1, OTC, ARG1 | 2.01 Log 2 | 0.94 Log 2 | NAGS expression, Fold change (Log 2) vs untreated (NAGS): 0.69 Log 2
EGF: Epidermal Growth Factor; Pan-ErbB activator | 1.93 Log 2 | three | CPS1, OTC, ARG1 | 1.46 Log 2 | 0.64 Log 2 | 
FGF: Fibroblast Growth Factor-acidic (FGF-1); FGFR activator | 1.72 Log 2 | three | CPS1, OTC, ARG1 | 1.24 Log 2 | 0.56 Log 2 | 
HGF/SF: Hepatocyte Growth Factor, scatter factor; c-Met activator | 2.02 Log 2 | four | NAGS, CPS1, OTC, ARG1 | 1.51 Log 2 | 0.56 Log 2 | NAGS expression, Fold change (Log 2) vs untreated (NAGS): 0.56 Log 2
PDGF | 2.12 Log 2 | four | CPS1, OTC, ARG1, SLC25A15 | 1.85 Log 2 | 0.77 Log 2 | SLC25A15 expression, Fold change (Log 2) vs untreated (SLC25A15): 0.71 Log 2
TNF-α | 2.31 Log 2 | four | CPS1, ASS1, OTC, ARG1 | 1.87 Log 2 | 0.87 Log 2 | Fold change (Log 2) vs untreated (ASS1): 0.58 Log 2
B1 | 1.66 Log 2 |  |  | 0.97 Log 2 |  | 
B2 | 2.6 Log 2 | four | CPS1, OTC, ARG1, SLC25A15 | 2.07 Log 2 | 0.92 Log 2 | SLC25A15 expression, Fold change (Log 2) vs untreated (SLC25A15): 0.7 Log 2
B3 | 2.44 Log 2 | three | CPS1, OTC, ARG1 | 2.05 Log 2 | 0.68 Log 2 | 
B4 | 2.35 Log 2 | three | CPS1, OTC, ARG1 | 2.06 Log 2 | 0.81 Log 2 | 
